According to patent US7468421B2, “Depilatories and agents for external use” (Kao Corporation, priority 1999, dated 2008):
Where no end group is shown, it is not given here.

Assays:
[1] = system: growth-phase hair follicles; assay: Growth-phase hair follicle inhibitory effects of endothelin, count of hair shafts; type: in vivo, guinea pig; details: 1 μg intracutaneously, 50 μL/site, fifth day after the administration
Protocol: Solutions (1 μg, each) of endothelin-1, endothelin-2 and endotherin-3 in aliquots of phosphate buffer solution (PBS), which contained 0.1% of bovine serum albumin (BSA), were intracutaneously administered (at 50 μL/site) to the dorsal parts of guinea pigs, respectively, from which hair had been cut off by a hair clipper. Three days after the administration, hair was again cut off by a hair clipper from the administered sites. Two days after the cutting, the numbers of hair shafts grown per unit area at the administered sites were counted.

C3H/HeNCrj mouse = assay: Hair growth test in mice; type: in vivo; details: 0.5 mg in 2.5 mL PEG 400/PEG 3350 (95/5), 25 μL/application once a day over 2 weeks, applied to depilated dorsal skin
Protocol: Endothelin-1 (0.5 mg) was dissolved in a mixed solution (2.5 mL) of polyethylene glycol 400 (average molecular weight: 400) and polyethylene glycol 3350 (average molecular weight: 3,350) (mixing ratio: 95/5) to prepare a hair growth inhibitor. Dorsal hair of each 8-week old C3H/HeNCrj mouse was removed with a depilatory cream (over an area of 2×4 cm^2), and the hair growth inhibitor was applied to the depilated site once a day at a dose of 25 μL/application over 2 weeks. A group in which only the solvent was similarly applied was employed as a control group. To observe regrowth of hair, the above-described depilated site on day 14 after the depilation was photographed at a predetermined fixed magnification, and the percentage of a regrown hair area (regrown hair area/depilated area×100) was determined using an image analyzer.

[2] = system: hair follicle organs in growth phase from a human scalp tissue; assay: Growth inhibitory effects on organ-cultured hair follicles; type: cell-based
Protocol: From a human scalp tissue, hair follicle organs in growth phase were surgically isolated under a stereomicroscope. Following a conventional procedure [Philpott M. P., et al., J. Cell Sci., 97, 463-471 (1990)], the isolated hair follicles were subjected to organ culture. Described specifically, endothelin-1 was added to William's E medium which contained L-glutamine (2 mM), hydrocortisone (10 ng/mL), insulin (10 μg/mL), sodium selenite (10 ng/mL) and transferrin (10 μg/mL).

[3] = system: growth-phase hair follicle; assay: Structural changes of hair follicle structure by the administration of endothelin, hematoxylin-eosin staining; type: in vivo, guinea pig; details: 0.3 μg intracutaneously
Protocol: A solution of endothelin-1 (0.3 μg) in phosphate buffer solution (PBS), which contained 1.1% of bovine serum albumin (BSA), was intracutaneously administered (at 50 μL/site) to the dorsal part of a guinea pig. After that, samples were collected day after day from the administered dorsal skin, and tissue samples were prepared by hematoxylin-eosin staining.

[4] = system: endothelin-induced depilation spot; assay: Concurrent administration of endothelin inhibitor on the endothelin-induced formation of depilation spot; type: in vivo, guinea pig; details: 10 days after the administration; endothelin-1 0.3 μg, PD142893 10 μg, intracutaneous
Protocol: As described in Example 1, endothelin (0.3 μg) was intracutaneously administered to the dorsal part of each guinea pig, and PD142893 (10 μg) as an endothelin inhibitor was also administered concurrently.
The size of a depilation spot formed 10 days after the administration was determined in terms of a product of its long diameter and short diameter.

[5] = system: dorsal part of a guinea pig; assay: Depilation inducing effects of endothelin, intracutaneous administration; type: in vivo; details: 0.3 μg intracutaneously, 50 μL/site, 10 days after the administration
Protocol: A solution of endothelin-1 (0.3 μg) in phosphate buffer solution (PBS), which contained 0.1% of bovine serum albumin (BSA), was intracutaneously administered (at 50 μL/site) to the dorsal part of a guinea pig.

| Molecule | number of hair shafts grown per unit area at the administered site [1] | Percentage of regrown hair area on day 14 after depilation (C3H/HeNCrj mouse) [%] | percent regression of growth-phase hair follicles ([2]; 10 ng/mL added endothelin, Day 1 of incubation) [%] | percent regression of growth-phase hair follicles ([2]; 10 ng/mL added endothelin, Day 2 of incubation) [%] | percent regression of growth-phase hair follicles ([2]; 10 ng/mL added endothelin, Day 4 of incubation) [%] | percent regression of growth-phase hair follicles ([2]; 10 ng/mL added endothelin, Day 6 of incubation) [%] | percent regression of growth-phase hair follicles ([2]; 100 ng/mL added endothelin, Day 1 of incubation) [%] | percent regression of growth-phase hair follicles ([2]; 100 ng/mL added endothelin, Day 2 of incubation) [%] | percent regression of growth-phase hair follicles ([2]; 100 ng/mL added endothelin, Day 4 of incubation) [%] | percent regression of growth-phase hair follicles ([2]; 100 ng/mL added endothelin, Day 6 of incubation) [%] | grown hair follicle lengths compared with control group ([2]; day 4 of incubation and the subsequent days (FIG. 3)) | structural change of incubated hair follicles ([2]; during the incubation period (FIG. 4)) | histological image of hair follicle ([3]; 1st day after the administration) | histological image of hair follicle ([3]; 3rd day after the administration) | Product of long diameter and short diameter of depilation spot (mean ± S.D., N = 6) [4] [mm^2] | observation at the administered site (depilation) [5] |
| --- | --- | --- | --- | --- | --- | --- | --- | --- | --- | --- | --- | --- | --- | --- | --- | --- |
| endothelin-3 (CTCFTYKDKECVYYCHLDIIW; ends and bridges not checked; cysteine pairing not given here; UniProt P14138 97-117, looked up) [endotherin-3, peptide composed of 21 amino acid residues; isoform of endothelin] | significant (p<0.01) decrease in the number of hair shafts | – | – | – | – | – | – | – | – | – | – | – | – | – | – | – |
| endothelin-2 (CSCSSWLDKECVYFCHLDIIW; ends and bridges not checked; cysteine pairing not given here; UniProt P20800 49-69, looked up) [peptide composed of 21 amino acid residues; isoform of endothelin] | significant (p<0.01) decrease in the number of hair shafts | – | – | – | – | – | – | – | – | – | – | – | – | – | – | – |
| CC[C@H](C)[C@H](NC(=O)[C@H](CC(=O)O)NC(=O)[C@H](CC(C)C)NC(=O)[C@H](Cc1c[nH]cn1)NC(=O)[C@@H]1CSSC[C@H](N)C(=O)N[C@@H](CO)C(=O)N[C@H]2CSSC[C@H](NC(=O)[C@H](CCC(=O)O)NC(=O)[C@H](CCCCN)NC(=O)[C@H](CC(=O)O)NC(=O)[C@H](CCSC)NC(=O)[C@H](CC(C)C)NC(=O)[C@H](CO)NC(=O)[C@H](CO)NC2=O)C(=O)N[C@@H](C(C)C)C(=O)N[C@@H](Cc2ccc(O)cc2)C(=O)N[C@@H](Cc2ccccc2)C(=O)N1)C(=O)N[C@H](C(=O)N[C@@H](Cc1c[nH]c2ccccc12)C(=O)O)[C@@H](C)CC [Endothelin-1, endothelin-1] | significant (p<0.01) decrease in the number of hair shafts | 2.22 | 0.0 | 0.0 | 17.6 | 35.3 | 0.0 | 0.0 | 23.5 | 41.2 | significant hair growth inhibitory effects | structural change of the endothelin-treated, growth-phase hair follicles into those similar to resting-phase hair follicles | regressed image of a growth-phase hair follicle | image of a follicular tissue in transition phase | 81.47 ± 6.53 | hair shaft falling-off and formation of a marked depilation spot |
